Measurements reported in patent US9708314B2, “Heterocyclic amide compound” (NISSAN CHEMICAL INDUSTRIES, LTD., priority 2013, dated 2017).

Legend:
Type in all cases: in vivo
[1] = system: Echinochloa oryzacola Vasing.; experiment: Test Example 2: herbicidal activity, application during weed generation in submerged conditions; settings: Eighteenth Table; application herbicide amount 320 g/ha
Outline: (§1)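 Scored three weeks post-application on a 0–5 scale (5: ≥90% herbicidal ratio, almost withered; 0: ≤5%). Plants raised from mixed-sown seed in submerged alluvial soil (4 cm water), 25–30 °C greenhouse; water-diluted emulsion applied onto water surface at one- to two-leaf stage, dose in g/ha.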

Scirpus juncoides = experiment: as above; settings: Eighteenth Table; application herbicide amount 320 g/ha
Outline: as §1

Monochoria vaginalis = experiment: as above; settings: Eighteenth Table; application herbicide amount 320 g/ha
Outline: as §1

[2] = system: directly sowed Oryza sativa; experiment: Test Example 3: effect on crop by application to foliage (Wagner pot, water depth 0.1-0.5 cm); settings: Nineteenth Table; application to foliage; application herbicide amount 320 g/ha
Outline: (§2)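 Rice-field weeds and directly sown rice were grown 14 days in flooded alluvial soil (water depth 0.1–0.5 cm) at 25–30 °C in a greenhouse. An emulsion formulation diluted to the stated g/ha rate was sprayed onto stems and leaves. Effects were scored on a 0–5 scale (herbicidal ratio bands) three weeks after treatment.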

Leptochloa chinensis = experiment: Test Example 3: herbicidal effect by application to foliage (Wagner pot, water depth 0.1-0.5 cm); settings: Nineteenth Table; application to foliage; application herbicide amount 320 g/ha
Outline: as §2

Cyperus difformis = experiment: as above; settings: Nineteenth Table; application to foliage; application herbicide amount 320 g/ha
Outline: as §2

[3] = system: Echinochloa crus-galli var. crus-galli; experiment: as above; settings: Nineteenth Table; application to foliage; application herbicide amount 320 g/ha
Outline: as §2

Row | SMILES | A (Echinochloa oryzicola Vasing.) herbicidal ratio grade [1] | B (Scirpus juncoides) herbicidal ratio grade (Scirpus juncoides) | C (Monochoria vaginalis) herbicidal ratio grade (Monochoria vaginalis) | b (effect on crop grade) [2] | D (herbicidal effect grade) (Leptochloa chinensis) | E (herbicidal effect grade) (Cyperus difformis) | H (herbicidal effect grade) [3]
1 | Cc1nnc(NC(=O)c2ccc(C(F)(F)F)n3c(-c4cc5ccccc5n4C)nnc23)o1 [1-059] | 2 (Herbicidal ratio of 20% or more and less than 40%) | 3 (Herbicidal ratio of 40% or more and less than 70%) | 2 (Herbicidal ratio of 20% or more and less than 40%) | 0 (Herbicidal ratio of 5% or less (almost no effect)) | 3 (Herbicidal ratio of 40% or more and less than 70%) | 3 (Herbicidal ratio of 40% or more and less than 70%) | 0 (Herbicidal ratio of 5% or less (almost no effect))
2 | Cc1nnc(NC(=O)c2ccc(C(F)(F)F)n3c(SCC4CC4)nnc23)o1 [1-115] | 3 (Herbicidal ratio of 40% or more and less than 70%) | 3 (Herbicidal ratio of 40% or more and less than 70%) | – | 0 (Herbicidal ratio of 5% or less (almost no effect)) | 4 (Herbicidal ratio of 70% or more and less than 90%) | 4 (Herbicidal ratio of 70% or more and less than 90%) | 5 (Herbicidal ratio of 90% or more (almost completely withered))
3 | CSCCNc1nnc2c(C(=O)Nc3nnc(C)o3)ccc(C(F)(F)F)n12 [1-130] | – | – | – | 2 (Herbicidal ratio of 20% or more and less than 40%) | 4 (Herbicidal ratio of 70% or more and less than 90%) | 2 (Herbicidal ratio of 20% or more and less than 40%) | 5 (Herbicidal ratio of 90% or more (almost completely withered))
4 | CC(C)c1nnc2c(C(=O)Nc3nnc(C[S+](C)[O-])o3)ccc(C(F)(F)F)n12 (stereo not shown) [1-143] | – | – | – | 0 (Herbicidal ratio of 5% or less (almost no effect)) | 2 (Herbicidal ratio of 20% or more and less than 40%) | 4 (Herbicidal ratio of 70% or more and less than 90%) | 4 (Herbicidal ratio of 70% or more and less than 90%)
5 | O=C(Nc1nnco1)c1ccc(C(F)(F)F)n2c(C3CC3)nnc12 [1-144] | 4 (Herbicidal ratio of 70% or more and less than 90%) | 4 (Herbicidal ratio of 70% or more and less than 90%) | 3 (Herbicidal ratio of 40% or more and less than 70%) | – | 4 (Herbicidal ratio of 70% or more and less than 90%) | 2 (Herbicidal ratio of 20% or more and less than 40%) | 5 (Herbicidal ratio of 90% or more (almost completely withered))
6 | CCC(CC)c1nnc2c(C(=O)Nc3nnco3)ccc(C(F)(F)F)n12 [1-145] | 4 (Herbicidal ratio of 70% or more and less than 90%) | 4 (Herbicidal ratio of 70% or more and less than 90%) | 4 (Herbicidal ratio of 70% or more and less than 90%) | – | 5 (Herbicidal ratio of 90% or more (almost completely withered)) | 5 (Herbicidal ratio of 90% or more (almost completely withered)) | 5 (Herbicidal ratio of 90% or more (almost completely withered))
7 | CSCc1nnc2c(C(=O)Nc3nnco3)ccc(C(F)(F)F)n12 [1-146] | 3 (Herbicidal ratio of 40% or more and less than 70%) | 3 (Herbicidal ratio of 40% or more and less than 70%) | 3 (Herbicidal ratio of 40% or more and less than 70%) | – | 5 (Herbicidal ratio of 90% or more (almost completely withered)) | 4 (Herbicidal ratio of 70% or more and less than 90%) | 5 (Herbicidal ratio of 90% or more (almost completely withered))
8 | O=C(Nc1nnco1)c1ccc(C(F)(F)F)n2c(-c3ccc(F)cc3)nnc12 [1-147] | 4 (Herbicidal ratio of 70% or more and less than 90%) | 2 (Herbicidal ratio of 20% or more and less than 40%) | 3 (Herbicidal ratio of 40% or more and less than 70%) | – | 5 (Herbicidal ratio of 90% or more (almost completely withered)) | 3 (Herbicidal ratio of 40% or more and less than 70%) | 5 (Herbicidal ratio of 90% or more (almost completely withered))
9 | COc1cc(OC)cc(-c2nnc3c(C(=O)Nc4nnco4)ccc(C(F)(F)F)n23)c1 [1-148] | 5 (Herbicidal ratio of 90% or more (almost completely withered)) | 5 (Herbicidal ratio of 90% or more (almost completely withered)) | 4 (Herbicidal ratio of 70% or more and less than 90%) | – | 5 (Herbicidal ratio of 90% or more (almost completely withered)) | 5 (Herbicidal ratio of 90% or more (almost completely withered)) | 5 (Herbicidal ratio of 90% or more (almost completely withered))
10 | COc1ccc(-c2nnc3c(C(=O)Nc4nnco4)ccc(C(F)(F)F)n23)cc1 [1-149] | 3 (Herbicidal ratio of 40% or more and less than 70%) | 3 (Herbicidal ratio of 40% or more and less than 70%) | 2 (Herbicidal ratio of 20% or more and less than 40%) | – | 5 (Herbicidal ratio of 90% or more (almost completely withered)) | 5 (Herbicidal ratio of 90% or more (almost completely withered)) | 5 (Herbicidal ratio of 90% or more (almost completely withered))
11 | O=C(Nc1nnco1)c1ccc(C(F)(F)F)n2c(-c3ccc(Cl)nc3)nnc12 [1-150] | 5 (Herbicidal ratio of 90% or more (almost completely withered)) | 5 (Herbicidal ratio of 90% or more (almost completely withered)) | 4 (Herbicidal ratio of 70% or more and less than 90%) | – | 5 (Herbicidal ratio of 90% or more (almost completely withered)) | 5 (Herbicidal ratio of 90% or more (almost completely withered)) | 5 (Herbicidal ratio of 90% or more (almost completely withered))
12 | COc1ccc(Cc2nnc3c(C(=O)Nc4nnco4)ccc(C(F)(F)F)n23)cc1 [1-151] | 4 (Herbicidal ratio of 70% or more and less than 90%) | 4 (Herbicidal ratio of 70% or more and less than 90%) | 2 (Herbicidal ratio of 20% or more and less than 40%) | – | 4 (Herbicidal ratio of 70% or more and less than 90%) | 4 (Herbicidal ratio of 70% or more and less than 90%) | 5 (Herbicidal ratio of 90% or more (almost completely withered))
13 | C#CCN(C)c1nnc2c(C(=O)Nc3nnc(C)o3)ccc(C(F)(F)F)n12 [1-152] | 3 (Herbicidal ratio of 40% or more and less than 70%) | 3 (Herbicidal ratio of 40% or more and less than 70%) | 3 (Herbicidal ratio of 40% or more and less than 70%) | – | 5 (Herbicidal ratio of 90% or more (almost completely withered)) | 4 (Herbicidal ratio of 70% or more and less than 90%) | 5 (Herbicidal ratio of 90% or more (almost completely withered))
14 | Cc1nnc(NC(=O)c2ccc(C(F)(F)F)n3c(N(C)CCC#N)nnc23)o1 [1-153] | 3 (Herbicidal ratio of 40% or more and less than 70%) | 3 (Herbicidal ratio of 40% or more and less than 70%) | 3 (Herbicidal ratio of 40% or more and less than 70%) | – | 5 (Herbicidal ratio of 90% or more (almost completely withered)) | 3 (Herbicidal ratio of 40% or more and less than 70%) | 5 (Herbicidal ratio of 90% or more (almost completely withered))
15 | COc1ccc(N(C)c2nnc3c(C(=O)Nc4nnc(C)o4)ccc(C(F)(F)F)n23)cc1 [1-165] | 2 (Herbicidal ratio of 20% or more and less than 40%) | 2 (Herbicidal ratio of 20% or more and less than 40%) | – | 0 (Herbicidal ratio of 5% or less (almost no effect)) | 4 (Herbicidal ratio of 70% or more and less than 90%) | – | 5 (Herbicidal ratio of 90% or more (almost completely withered))
16 | COc1ccc(CN(C)c2nnc3c(C(=O)Nc4nnc(C)o4)ccc(C(F)(F)F)n23)cc1 [1-167] | – | – | – | – | 2 (Herbicidal ratio of 20% or more and less than 40%) | – | 1 (Herbicidal ratio of 5% or more and less than 20%)
17 | COC1CCC(c2nnc3c(C(=O)Nc4nnc(C)o4)ccc(C(F)(F)F)n23)CC1 (stereo not shown) [1-169] | 3 (Herbicidal ratio of 40% or more and less than 70%) | 4 (Herbicidal ratio of 70% or more and less than 90%) | 4 (Herbicidal ratio of 70% or more and less than 90%) | 1 (Herbicidal ratio of 5% or more and less than 20%) | 4 (Herbicidal ratio of 70% or more and less than 90%) | – | 5 (Herbicidal ratio of 90% or more (almost completely withered))
